Measurements taken from US20150258057A1, “FATTY ACID DERIVATIVES FOR TREATING INFECTIOUS DISEASES” (IMARKO RESEARCH S.A., priority 2014, published 2015).

Key:
Assay in all cases: diffusion method in agar medium (zone of inhibition)
Format in all cases: cell-based
[1] = tested on: Lactobacillus acidophilus; conditions: for inhibition of growth (in words): Table 2
Method: (§1) The antibiotic activity of zinc and copper soaps (salts of copper caprylate, caprate, caproate and laurate; and salts of zinc caprylate, caprate, caproate and laurate) was measured according to the diffusion method in agar medium, the protocol of which is detailed below.
(§2) This method consists in depositing on inoculated agar culture medium sterile absorbent paper discs impregnated with the antibiotic solution to be examined.
(§3) The activity of an antibiotic is estimated by comparing the inhibition of growth of sensitive microorganisms caused respectively by known concentrations of the antibiotic to be examined and of a reference substance.
(§4) The diluents and culture media used are: • 0.85% physiological saline (AES, reference PHYW-AEB110389), • buffered peptone water (bioMerieux, reference 42111), • Sabouraud glucose agar with chloramphenicol (bioMerieux, reference 42620), • Neutral MRS agar pH=6.4 (AES, reference AEB621756N), • Trypcase soy agar (bioMerieux, reference 41466), • Cetrimide agar (bioMerieux, reference 43565).
(§5) The agar culture medium is poured into a petri dish. Once solidified, the surface of the agar is inoculated in a layer with the selected microorganism. Then fitter paper discs, 6.6 mm in diameter, impregnated with the various solutions to be tested are placed on the surface. The petri dishes are left at room temperature for about 1 hour to allow the substances to diffuse in the agar.
(§6) The cultures are then incubated at 32.5° C.±2.5° C. The agar media and the incubation conditions are suited to the inoculated microorganism.
(§7) The diameter of the zone of inhibition is a function of the concentration, diffusion and activity of the tested substance placed on the filter.

Saccharomyces cerevisiae = conditions: for inhibition of growth (in words): Table 2
Method: as §1, §2, §3, §4, §5, §6, §7

Bifidobacterium = conditions: for inhibition of growth (in words): Table 2
Method: as §1, §2, §3, §4, §5, §6, §7

Lactobacillus paracasei = conditions: for inhibition of growth (in words): Table 2
Method: as §1, §2, §3, §4, §5, §6, §7

Pseudomonas putida = conditions: 200 mg in 2 ml of DMSO, disc 6.6 mm
Method: as §1, §2, §3, §4, §5, §6, §7

[2] = tested on: Bacillus coagulans (spores); conditions: for inhibition of growth (in words): Table 2
Method: as §1, §2, §3, §4, §5, §6, §7

Lactobacillus plantarum = conditions: for inhibition of growth (in words): Table 2
Method: as §1, §2, §3, §4, §5, §6, §7

[3] = 200 mg in 2 ml of DMSO, disc 6.6 mm

SMILES | Diameter of inhibition [1, 3] [mm] | Diameter of inhibition (Saccharomyces cerevisiae; [3]) [mm] | Diameter of inhibition (Bifidobacterium; [3]) [mm] | Diameter of inhibition (Lactobacillus paracasei; [3]) [mm] | Diameter of inhibition (Pseudomonas putida) [mm] | Diameter of inhibition [2, 3] [mm] | Diameter of inhibition (Lactobacillus plantarum; [3]) [mm] | inhibition of growth (in words) [1] | inhibition of growth (in words) (Saccharomyces cerevisiae) | inhibition of growth (in words) (Bifidobacterium) | inhibition of growth (in words) (Lactobacillus paracasei) | inhibition of growth (in words) [2] | inhibition of growth (in words) (Lactobacillus plantarum)
CCCCCCCC(=O)Oc1cc(C)ccc1C(C)C [Thymol caprylate] | 8.2 | 7.28 | 9 | 7.75 | 7.86 | 8.5 | 6.9 |  |  |  |  |  | 
CCCCCCCCCCCC(=O)OCC(O)CO (stereo not shown) [Glycerol monolaurate] |  |  |  |  |  |  |  | inhibition | no inhibition | no inhibition | no inhibition | inhibition | no inhibition
CCCCCCCC(=O)OCC(O)CO (stereo not shown) [Glyceryl caprylate] |  |  |  |  |  |  |  | inhibition | inhibition | inhibition | inhibition | inhibition | inhibition
